The record followed here is publication PMC9127117, “Towards discovery of inhibitors of the undecaprenyl-pyrophosphate phosphatase BacA by virtual high-throughput screening” (Computational and Structural Biotechnology Journal, 2022).

Assay [1] has as its system BWbacA-singleΔtolC strain. Put plainly: Growth inhibition / MIC in 2YT liquid medium. Conditions: for class of antibacterial activity (Figure S2): BWΔtolC and BWbacA-singleΔtolC strains, 250 and 500 µM; for MIC: BWbacA-singleΔtolC strain; for growth inhibition: TolC/PAP2-depleted BWbacA-singleΔtolC, 500 µM compound. It is filed as cell-based, E. coli. The method, then: (§1) Bacteria were grown in 2YT broth supplemented, when required, with ampicillin or kanamycin at concentrations of 100 and 50 µg/ml, respectively. The BWΔtolC strain was obtained from the Keio collection. The BWΔbacAΔtolC and BWbacA-singleΔtolC were generated by P1 transduction of the ΔtolC::Kan^R cassette from BWΔtolC strain to BWΔbacA and DMEG9 recipient strains, respectively. The strains S. aureus RN4220 and S. pneumoniae R6 were used to evaluate the antibacterial activity of certain compounds. S. aureus was grown on BHI (Brain Heart Infusion) broth and S. pneumoniae was grown on Colombia broth supplemented with 5% horse blood.
(§2) For compounds displaying inhibitory activity on BacA catalysis, their antibacterial activity was tested on different E. coli strains by monitoring bacterial growth in the presence of compounds (125, 250 and 500 µM). One colony was cultured in 10 ml of 2YT liquid medium and incubated at 37℃ for 6 h. The absorbance of the culture at 600 nm (A600) was measured to prepare a bacterial suspension in 2YT liquid medium at 15.10^6 CFU/ml (A600 = 1 corresponds to 3.10^8 CFU/ml). The bacterial suspension (200-µl) was then grown on 96-well plates in the presence or not of compounds (5-µl), which was added from a stock solution prepared in DMSO. Negative controls were then performed by growing the cells without inhibitors in 2YT medium and in 2YT medium supplemented with 2.5% of DMSO. The plates were incubated at 37℃ overnight with A600 measurements every 10 min using a Tecan F200 PRO microplate reader (iControl software).

Another assay concerns BWΔtolC strain. Nature of the assay: Growth inhibition in 2YT liquid medium (off-target activity). It is filed as cell-based, E. coli. Conditions: for growth inhibition: TolC-depleted BWΔtolC; for Off-target activity: antibacterial activity against BWΔtolC. The method, then: as §1, §2
The target of another assay is BacA (Escherichia coli, UniProt P60932). Conditions: for IC50 / BacA RA (%): 50 µM C55-PP, 5 nM BacA; for IC50: average of at least three experiments; for BacA RA (%): residual activity in the presence of 100 µM compound, 10 min 37 °C. The method, then: C43(DE3) cells carrying pTrcBac30 plasmid were used for the expression of N-terminally His6-tagged BacA (His6-BacA) protein from E. coli. Cells were grown in 2YT-ampicillin at 37 °C and when the OD600 reached 0.9, the temperature of the culture was decreased to 22 °C and protein expression was induced by addition of 1 mM IPTG. Incubation was continued overnight at 22 °C and bacteria were harvested in the cold and washed in a buffer containing 20 mM Tris-HCl, pH 7.4, 0.4 M NaCl, 10% glycerol and 10 mM β-mercaptoethanol (buffer A). The cells were disrupted by three successive passages through a French press and the suspension was centrifuged at 200,000× g, 4 °C for 45 min. The pellet of membranes was washed with buffer A. The membranes were resuspended in buffer A supplemented by 2% DDM detergent. This mixture was incubated for 2 h at 4 °C under agitation before being centrifuged as described above. The supernatant containing solubilised membrane proteins was used for the purification of His6-BacA on Ni^2+-NTA-agarose. The supernatant was incubated overnight at 4 °C under agitation with 2 ml of Ni^2+-NTA-agarose polymer pre-equilibrated with buffer A supplemented with 10 mM imidazole and 0.2% DDM. The mixture was then transferred into a Poly-prep chromatography column (Biorad) and the polymer was washed with 50 ml of buffer A containing 0.2% DDM and successively 10 and 30 mM imidazole. The elution of BacA was then performed with buffer A containing 0.2% DDM and 400 mM imidazole. Fractions containing the BacA protein were subjected to an additional gel-filtration purification step on Superdex 200 (HiLoadTM 16/600 SuperdexTM 200) equilibrated in 0.1% DDM-containing buffer A. 1-ml fractions were collected and analysed by SDS-PAGE. Pure fractions were pooled and concentrated to 1 mg/ml (50000 MWCO concentrator, Vivaspin™ 20). […] PgpB was purified as previously described.
Chain of BacA (P60932 whole entry): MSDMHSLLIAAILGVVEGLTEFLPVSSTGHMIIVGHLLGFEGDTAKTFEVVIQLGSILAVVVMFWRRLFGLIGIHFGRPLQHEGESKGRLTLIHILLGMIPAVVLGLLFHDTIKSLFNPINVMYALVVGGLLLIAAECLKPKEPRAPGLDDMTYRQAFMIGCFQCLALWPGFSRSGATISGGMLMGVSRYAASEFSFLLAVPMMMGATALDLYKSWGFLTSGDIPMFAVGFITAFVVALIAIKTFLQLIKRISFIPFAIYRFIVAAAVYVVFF
The C55-PP phosphatase activity of BacA was assessed by measuring the percentage of transformation of [^14C]C55-PP into [^14C]C55-P upon incubation with BacA by TLC analysis. The butanol from the [^14C]C55-PP solution was dried under vacuum so as to evaporate the organic solvent and to recover C55-PP as a lipidic film. […] The compounds (1 µL) were added to the reaction mixture at 100 µM final concentration (at the first instance) from a 2 mM stock solution prepared in DMSO. A blank experiment without compound, but with 1 µL DMSO, was performed in order to determine the 100 % of BacA activity to which all other experiments were compared. BacA (2 µL) was then added at a final concentration of 5 nM from a dilution solution prepared in the reaction buffer. The concentration of enzyme was fixed so that the consumption of substrate at the end of the incubation time in the control was less than 30%. The reaction mixture was incubated for 10 min at 37 °C and the catalysis was stopped by freezing in liquid nitrogen. The radiolabelled substrate (C55-PP) and product (C55-P) were separated by TLC on pre-coated plates of silica gel 60 (Merck) using propanol/ammonium hydroxide/water (6:3:1, v/v/v) as a mobile phase. The radioactive spots were located and quantified with a radioactivity scanner. […] Dose-response curves were plotted as BacA residual activity (RA) versus the logarithms of inhibitor concentration. […] Reported values are the average of at least three experiments. The C55-PP phosphatase activity of PgpB was measured as described for BacA.
The activity of BacA was then investigated by monitoring the initial velocity of [^14C]C55-PP dephosphorylation, as described in Material and methods section. […] The compounds were prepared as 2 mM DMSO stock solutions, resulting in a 5 % final concentration of DMSO in the reaction mixture.

Another assay relates to S. pneumoniae R6. Put plainly: Double-disc diffusion test with bacitracin. Type of assay: cell-based. The conditions noted are these: 130 µg bacitracin disc alone. The method, then: To evaluate the antibacterial activity of the compounds per se or in combination with bacitracin, against S. aureus RN4220 and S. pneumoniae R6 strains, disc diffusion method was used according to the CLSI guidelines. Bacterial suspensions equivalent to 10^8 CFU/ml were prepared in 5 ml BHI broth. A BHI-agar plate (for S. aureus) or Colombia-agar plate supplemented with 5% Horse Blood (for S. pneumoniae) were then flooded with a bacterial suspension for 1 min to allow the bacteria to sediment before removing the excess of medium. The commercial discs loaded with 130 µg of bacitracin (Biorad) was positioned on top of the bacterial lawn at distances of 10 mm (center to center) from another sterile and blank disc, which was then loaded with 7 µL of a compound solution (50 µg). The plates were incubated at 37 °C for 24 h and the diameter of the growth inhibition zone was measured and a photo of the plates was acquired using a ChemiDoc™ MP System.
Figure S3. Test of antibacterial activity of BacA inhibitors against S. aureus RN4220 (A) and S. pneumonia R6 (B) strains. Bacitracin (130 µg)- and compound (50 µg)-loaded discs were positioned at 10 mm of distance on top of a bacterial lawn. The plates were incubated overnight at 37 °C. These images are representative of three independent tests. […]
In general terms: A growth-free zone around the sample is the usual read-out of agar diffusion tests.

Consider `O=C(O)c1csc(S(=O)(=O)Nc2ccc(SCc3cccnc3)cc2)c1` [Compound 1, 5-{p-[(3-pyridyl)methylthio]phenylaminosulfonyl}-3-thenoic acid], for which the “class of antibacterial activity (Figure S2)” value (“class” below) in assay [1] is reported as “without any antibacterial activity whatever the strain”. Moreover, the MIC (as a rule, the smallest concentration in the dilution series that meets the test's criterion for growth inhibition) in assay [1] (Escherichia coli, 125, 250 and 500 µM tested) is more than 500 µM; in assay [1] (Escherichia coli, class symbol ND) it was more than 500 µM. Moreover, the growth inhibition entry in the assay on BWΔtolC strain (500 µM compound) is “no growth inhibition”. Further, the Off-target activity result in the assay with BWΔtolC strain is reported as “No”.

Consider `O=C(O)c1csc(S(=O)(=O)Nc2ccc3ccccc3c2)c1` [Compound 6], for which, on BacA, half-maximal inhibition (IC50) required 151 ± 13 µM and the “BacA RA (%)” value turned out to be 70 ± 18%. For the same compound, in assay [1], the MIC was determined as 83 µg/mL, the “class” value is reported as “antibacterial activity on both strains” and the growth inhibition result is given as “total growth inhibition”. The same compound registered an MIC in assay [1] (125, 250 and 500 µM tested) of 250 µM. The growth inhibition entry in the assay on BWΔtolC strain (250 µM compound) was “no effect”. Moreover, the growth inhibition entry in the assay with BWΔtolC strain (500 µM compound) is listed as “moderate inhibition”. In the assay with BWΔtolC strain, the Off-target activity result is given as “Yes”.

Regarding `CC(C)Oc1ccc(NS(=O)(=O)c2cc(C(=O)O)cs2)cc1` [Compound 7], on BacA, half-maximal inhibition (IC50) required 366 ± 73 µM and the “BacA RA (%)” value is 80 ±10%. In addition, in assay [1], the MIC came out at 170 µg/mL, the “class” value is on record as “strong specificity towards BacA” and the growth inhibition result was “total growth inhibition”. In assay [1] (125, 250 and 500 µM tested), this compound displayed an MIC of 500 µM. For the same compound, the growth inhibition entry in the assay on BWΔtolC strain (500 µM compound) was “no effect”. For the same compound, the Off-target activity result in the assay on BWΔtolC strain is listed as “No”.

`Cc1ccc(NS(=O)(=O)c2cc(C(=O)O)cs2)cc1C` [Compound 2]: on BacA, the IC50 (in general, the concentration needed to halve the response being measured) stood at 132 ± 22 µM and the “BacA RA (%)” value was 66± 17%. The “nature of the inhibition (compound versus substrate competition kinetics)” value at BacA (25 to 300 µM substrate, 200 µM compound) is reported as “non-competitive inhibitors”. For the same compound, in assay [1], the minimum inhibitory concentration (MIC) was 155 µg/mL, the “class” value is recorded as “strong specificity towards BacA” and the growth inhibition entry is on record as “total growth inhibition”. The compound also displayed a minimum inhibitory concentration (MIC) in assay [1] (125, 250 and 500 µM tested) of 500 µM. In the assay on BWΔtolC strain (500 µM compound), the growth inhibition result is “no effect”. In addition, in the assay with BWΔtolC strain, the Off-target activity result is listed as “No”.

For bacitracin [reference compound], the “inhibition zone of bacitracin” value in the assay on S. pneumoniae R6 was 7.5 mm.
